Series [1] is described as follows: Liver microsome stability (human). A general note: Liver microsomes are vesicles of endoplasmic reticulum, rich in cytochrome P450 enzymes.
The nature of series [2]: Plasma protein binding (mouse).
A further series concerns EAE mice. Briefly: Optical coherence tomography (RNFL thickness) in EAE. In kind it is in vivo, mouse. The following applies: vs EAE + V. How it is done: Optical coherence tomography, electroretinograms and visual evoked potentials: OCT was acquired using the spectral domain‐OCT (R2200 840 nm HHP; Leica, Deerfield, IL) at peak EAE disease according to previously published methods[23],[28]. Each image was taken 3 times and averaged. Automatic segmentation of retinal layers was performed using Bioptigen Diver 3.0 software (Leica Microsystems, Deerfield, IL). ERG and VEPs were measured using the HMsERG200 ([…], Henderson, NV) as previously described[23],[28]. Animals were dark adapted for a minimum of 5 h prior to recording. During acquisition, animals were anesthetized with continuous 2% isoflurane. Traces were averaged and filtered for 60 Hz noise and a low-pass filter. MATLAB was used to adjust baselines and smoothed prior to measuring ERG and VEP amplitudes and latencies.
Optical coherence tomography: OCT was acquired using the spectral domain‐OCT (R2200 840 nm HHP; Leica, Deerfield, IL) at peak EAE disease according to previously published methods(8, 9). Each image was taken 3 times and averaged. Automatic segmentation of retinal layers was performed using Bioptigen Diver 3.0 software (Leica Microsystems, Deerfield, IL).

A short description of series [3]: Oral PK of K102 at 40 mg/kg in female monkeys. It counts as in vivo, cynomolgus monkey. The following applies: female monkey, PO 40 mg/kg, mean.
Series [4] in a line: Oral PK of K102 at 40 mg/kg in female rats. It counts as in vivo, Sprague–Dawley rat. Particulars: female rat, PO 40 mg/kg, mean.
In the next series the target is CYP2C9 (Homo sapiens, UniProt P11712). The following applies: 10 µM.
For series [5] the following is noted: mouse, in vivo.
Protocol: Mice were dosed intravenously at 5 mg/kg, subcutaneously at 10 mg/kg, and orally at 25 mg/kg.
Only values above the LLOQ.(0.3 ng/mL) were plotted.
A further series has as its target CYP3A4 (Homo sapiens, UniProt P08684). The following applies: 10 µM.
The next series deals with EAE mice retina. Briefly: Retina IHC in EAE. In kind it is in vivo, mouse. The source says: Animal Perfusions, tissue preparation, and IHC: Mice were deeply anesthetized and euthanized with isoflurane and intracardially perfused with ice‐cold PBS followed by 10% formalin in PBS (Fisher Scientific, Hampton, NH). Eyes, optic nerves, and brain were collected and processed for IHC as previously described[23],[28]. Antibody details are listed in Supplementary Table S6.
Imaging and Quantification: Retina, optic nerve, and brain sections were imaged using an Olympus BX61 spinning disk confocal microscope with 10× and 40× objectives[23],[28]. Z-stack images were captured and processed using Slidebook 6 and cellSense software. Immunofluorescence intensity and cell counts were quantified using NIH ImageJ, and statistical analysis was performed with GraphPad Prism.
RGC degeneration and pronounced GFAP immunoreactivity is evident in both MS and EAE[23],[28],[35],[36]. To quantify the number of RGCs, neuronal nuclear marker (NeuN) was used. […]
Imaging and Quantification: Retina, optic nerve, and brain sections were imaged using an Olympus BX61 spinning disk confocal microscope equipped with 10x and 40x Super Apochromat objectives (Olympus America Inc., Cypress, CA) connected to a camera (Hamamatsu Orca‐R2). […] Immunofluorescence intensity and cell numbers were assessed with NIH ImageJ software (v1. 50i http://rsb.info.nih.gov/ij/) and quantified. […]

Like-named read-outs stand apart in the source and are kept apart here.

The source of these data is publication PMC12508063, “Chloroindazole based estrogen receptor β ligands with favorable pharmacokinetics promote functional remyelination and visual recovery” (Scientific Reports, 2025).

Broadly, the Cmax is the highest concentration seen after dosing. A word on the Tmax: it is the time at which the peak concentration occurs.

Chain of CYP2C9 (P11712 whole entry): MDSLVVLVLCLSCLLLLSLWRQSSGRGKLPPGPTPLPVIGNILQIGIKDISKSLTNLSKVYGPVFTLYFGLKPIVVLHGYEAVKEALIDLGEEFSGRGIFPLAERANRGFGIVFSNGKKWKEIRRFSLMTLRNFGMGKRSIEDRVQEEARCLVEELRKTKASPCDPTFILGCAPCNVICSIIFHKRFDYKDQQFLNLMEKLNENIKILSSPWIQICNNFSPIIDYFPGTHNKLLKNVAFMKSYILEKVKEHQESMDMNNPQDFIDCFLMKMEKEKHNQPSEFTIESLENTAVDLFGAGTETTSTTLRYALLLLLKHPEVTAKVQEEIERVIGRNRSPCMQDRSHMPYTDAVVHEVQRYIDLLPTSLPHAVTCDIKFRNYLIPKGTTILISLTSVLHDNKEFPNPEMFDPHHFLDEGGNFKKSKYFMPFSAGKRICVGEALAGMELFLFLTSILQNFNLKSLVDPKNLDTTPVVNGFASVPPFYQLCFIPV
Chain of CYP3A4 (P08684 whole entry, the tested form may be a part): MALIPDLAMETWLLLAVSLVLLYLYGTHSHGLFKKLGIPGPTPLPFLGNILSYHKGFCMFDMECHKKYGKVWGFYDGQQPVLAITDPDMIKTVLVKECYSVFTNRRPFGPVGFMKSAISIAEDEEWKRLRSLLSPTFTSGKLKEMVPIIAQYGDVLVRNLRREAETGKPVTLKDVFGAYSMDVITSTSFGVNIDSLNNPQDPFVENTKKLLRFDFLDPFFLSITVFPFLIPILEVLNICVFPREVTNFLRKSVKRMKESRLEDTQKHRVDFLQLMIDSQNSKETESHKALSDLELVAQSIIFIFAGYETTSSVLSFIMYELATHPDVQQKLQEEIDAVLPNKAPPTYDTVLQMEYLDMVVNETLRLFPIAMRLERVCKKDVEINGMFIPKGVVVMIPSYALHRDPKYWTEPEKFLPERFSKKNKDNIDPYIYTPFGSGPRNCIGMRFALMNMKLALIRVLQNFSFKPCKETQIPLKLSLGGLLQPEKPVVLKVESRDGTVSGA

For the molecule `Cc1cc(O)ccc1-n1nc2ccc(O)cc2c1Cl` [Compound K102, IndCl-o-Me], the “Liver Microsome Stability (Human) % Remaining (30 min)” value in series [1] (30 min) came out at 78.03%. The “Liver Microsome Stability (Human) CLint” value in series [1] (human, microsomes) is recorded as 8.47 µL/min/mg protein. Moreover, the “Protein Binding (% Bound) Mouse” value in [2] was 96.81%. Moreover, the “RNFL thickness (OCT)” value in the series with EAE mice was “prevented the significant reduction”. Moreover, in series [3], the AUCInf/D turned out to be 59.3 kg·ng·h/mL/mg, the AUClast was 2373.0 ng·h/mL, the Cmax amounted to 355.3 ng/mL and the Tmax came to 79.8 min. Moreover, in series [4], the AUCInf/D was 235.1 kg·ng·h/mL/mg, the AUClast came out at 9403 ng·h/mL, the peak concentration (Cmax) was 1657 ng/mL and the time to peak (Tmax) stood at 15 min.
For the molecule `Oc1ccc(-n2nc3ccc(O)cc3c2Cl)c(O)c1` [Compound K110, IndCl-o-OH], on CYP2C9, the “CYP Inhibition Percentage CYP2C9” value came to 18.49%. For the same molecule, in series [5] (iv, 5 mg/kg), the Cl_obs was found to be 158 mL/min/kg, the “Kp AUC0-t (brain/plasma)” value is 0.37, the “Kp AUClast (brain/plasma)” value was found to be 0.37 and the Vss_obs is recorded as 2.23 L/kg. In addition, in [5] (po, 25 mg/kg), the AUCinf brain was found to be 354 ng·h/g, the AUCinf plasma amounted to 780 ng·h/mL, the “Brain/Plasma Ratio(%)” value worked out at 46% and the “Kp AUC0-t (brain/plasma)” value turned out to be 0.46. The “Kp AUClast (brain/plasma)” value in series [5] (po, 25 mg/kg) is 0.41. Further, in series [5] (sc, 10 mg/kg), the AUCinf brain was 303 ng·h/g, the AUCinf plasma is 1403 ng·h/mL, the “Brain/Plasma Ratio(%)” value came to 22% and the “F (Bioavailability)” value stood at 133%. Moreover, in [5] (sc, 10 mg/kg), the “Kp AUC0-t (brain/plasma)” value is listed as 0.22 and the “Kp AUClast (brain/plasma)” value was determined as 0.20. Besides, the “CYP Inhibition Percentage CYP3A4-T” value at CYP3A4 is reported as 45.13%. For the same molecule, in the series on EAE mice retina, the “GFAP, mean value” worked out at 6.695 and the “NeuN (RGCs), mean value” is reported as 6.167.
